This is an account of results in patent US20210299111A1, “EIF4A INHIBITOR COMBINATIONS” (eFFECTOR Therapeutics Inc., priority 2020, published 2021).

One experiment concerns cyclin D1. In words: Expression of cyclin D1 in MDA-MB-361 ER+ breast cancer cells treated with eFT226. The format is cell-based. As to conditions: MDA-MB-361 cells, 24 hours, FIG. 1. The protocol: (§1) The effect of eFT226 on key cell cycle regulators in MDA-MB-361 ER^+ breast cancer cells was tested. MDA-MB-361 ER^+ breast cancer cells were treated with varying concentrations of eFT226 (10 nM, 30 nM, and 100 nM) for 24 hours, and analyzed for the expression of the relevant key cell cycle regulators, cyclin D1, CDK4, and phosphorylated retinoblastoma (Rb) protein.

For a further experiment, the system named is CDK4. In words: Expression of CDK4 in MDA-MB-361 ER+ breast cancer cells treated with eFT226. The format is cell-based. As to conditions: MDA-MB-361 cells; eFT226 10 nM, 30 nM, 100 nM; 24 hours; FIG. 1. The method, then:
as §1

The subject of experiment [1] is phosphorylated retinoblastoma (Rb) protein. In words: Phosphorylated Rb protein in MDA-MB-361 ER+ breast cancer cells treated with eFT226. It counts as cell-based. The conditions noted are these: MDA-MB-361 cells; eFT226 10 nM, 30 nM, 100 nM; 24 hours; FIG. 1. The method, then: as §1
The subject of experiment [2] is MDA-MB-361 ER^+ breast cancer cells. In words: Cell viability of MDA-MB-361 cells, single agents and combination. The format is cell-based. The conditions noted are these: Palbociclib 40 nM, eFT226 45 nM, 24 hours, then Palbociclib only for 6 days, versus untreated control, FIG. 2. The protocol: MDA-MB-361 ER^+ breast cancer cells were seeded at 10,000 cells/well in 24-well plates and treated with DMSO (“control”), Palbociclib (40 nM)(“Palbo”), eFT226 (45 nM) (“eFT226”), or the combination of the two drugs (“Combo”). After 24 hours of treatment, cells were rinsed and treatment with Palbociclib only was continued for 6 days, at which time cell viability was determined. Cells were counted on day 0 and day 6, when the experiment was ended.

Experiment [3] has the same test system. In words: MDA-MB-361 xenograft tumor growth in athymic mice. It counts as in vivo. The conditions noted are these: eFT226 0.1 mg/kg intravenously Q4D, palbociclib 30 mg/kg orally QD, 18 days, tumor volume followed up to 45 days after last dose, FIG. 3. The method, then:
The in vivo effect of a combination treatment using eFT226 and palbociclib on the tumor growth of MDA-MB-361 ER^+ breast cancer cells was tested. Xenograft experiments were performed by implanting MDA-MB-361 ER^+ breast cancer cells into athymic mice. Athymic mice implanted with MDA-MB-361 tumor cells were randomized and size-matched into vehicle and treatment groups when the mean tumor size reached ˜300 mm^3. The mice were then treated with (1) control vehicle; (2) 0.1 mg/kg of eFT226 administered intravenously every 4 days (Q4D) for a period of 18 days; (3) 30 mg/kg of palbociclib administered orally every day (QD) for a period of 18 days; or (4) 0.1 mg/kg of eFT226 administered intravenously Q4D and 30 mg/kg of palbociclib administered orally QD for a period of 18 days. The effect on the above treatments on tumor volume was monitored. Tumor volume was measured periodically for up to 45 days after the last dose of treatment was administered. […] Administration of either eFT226 or palbociclib alone led to a inhibition of tumor growth for about 22 days after the treatment was stopped. […] It is unknown what factors determine the equilibrium between the CDK4/6 inhibitor-sensitive monomeric CDK4 and the drug resistant p27-CDK4-cyclin D1 trimer.

Experiment [4] deals with SW620 (KRAS G12V) colorectal cancer cells. In words: Cell viability (crystal violet) in KRAS mutant SW620 cells. The format is cell-based. As to conditions: Palbociclib 100 nM, eFT226 10 or 50 nM, 24 hours, then Palbociclib alone for 13 days, FIG. 4. The protocol:
(§2) SW620 (KRAS G12V) colorectal cancer cells (FIG. 1), DLD1 (KRAS G13D) colorectal cancer cells (FIG. 2), and CORL23 (KRAS G12V) NSCLC cells (FIG. 3) were seeded at 500-1,000 cells/well in 6-well plates and treated with DMSO control (“DMSO”), Palbociclib (100 nM) (“Palbo”), eFT226 (10 or 50 nM), or the combination of the two drugs (“Palbo+eFT226). After 24 hours of treatment, cells were rinsed and treatment with Palbociclib alone was continued for an additional 13 days. At the end of treatment, cells were rinsed with phosphate buffered saline (PBS) and stained with crystal violet.

Experiment [5] deals with DLD1 (KRAS G13D) colorectal cancer cells. In words: Cell viability (crystal violet) in KRAS mutant DLD1 cells. The format is cell-based. The conditions noted are these: Palbociclib 100 nM, eFT226 10 or 50 nM, 24 hours, then Palbociclib alone for 13 days, FIG. 5. The protocol: as §2
The test system of experiment [6] is CORL23 (KRAS G12V) NSCLC cells. In words: Cell viability (crystal violet) in KRAS mutant CORL23 cells. It counts as cell-based. As to conditions: Palbociclib 100 nM, eFT226 10 or 50 nM, 24 hours, then Palbociclib alone for 13 days, FIG. 6. The method, then:
as §2

Take `COc1cc2c(c(OC)n1)[C@]1(O)[C@H](O)[C@H](CN(C)C)[C@@H](c3ccccc3)[C@]1(c1ccc(C#N)cc1)O2` [eFT226]: in the experiment with cyclin D1, the “decrease of Cyclin D1 protein levels compared with Fulvestrant” value is listed as “more effective than Fulvestrant (Fulv) in decreasing Cyclin D1 protein levels”. In the experiment on cyclin D1 (eFT226 10 nM, 30 nM, 100 nM), the “cyclin D1 expression” value was “suppression of cyclin D1 and CDK4 expression was observed in the cell line at all concentrations”. Moreover, the CDK4 expression result in the experiment on CDK4 is “suppression of cyclin D1 and CDK4 expression was observed in the cell line at all concentrations”. In addition, the “phosphorylated Rb protein” value in experiment [1] is “concomitant decrease in phosphorylated Rb protein”. Besides, the cell viability entry in experiment [2], in experiment [4], in experiment [5] and in experiment [6] was “reduced” each time. Also, in experiment [3], the “duration of inhibition of tumor growth after the last dose” value is “about 22 days”.
With `CC(=O)c1c(C)c2cnc(Nc3ccc(N4CCNCC4)cn3)nc2n(C2CCCC2)c1=O` [palbociclib, reference compound], the “duration of inhibition of tumor growth after the last dose” value in experiment [3] is “about 22 days”.
